Where two headings read alike, the source gives them in different places.

One data set concerns the target T1, GLAST (Rattus norvegicus, UniProt P24942).
T1 sequence (P24942 1-543): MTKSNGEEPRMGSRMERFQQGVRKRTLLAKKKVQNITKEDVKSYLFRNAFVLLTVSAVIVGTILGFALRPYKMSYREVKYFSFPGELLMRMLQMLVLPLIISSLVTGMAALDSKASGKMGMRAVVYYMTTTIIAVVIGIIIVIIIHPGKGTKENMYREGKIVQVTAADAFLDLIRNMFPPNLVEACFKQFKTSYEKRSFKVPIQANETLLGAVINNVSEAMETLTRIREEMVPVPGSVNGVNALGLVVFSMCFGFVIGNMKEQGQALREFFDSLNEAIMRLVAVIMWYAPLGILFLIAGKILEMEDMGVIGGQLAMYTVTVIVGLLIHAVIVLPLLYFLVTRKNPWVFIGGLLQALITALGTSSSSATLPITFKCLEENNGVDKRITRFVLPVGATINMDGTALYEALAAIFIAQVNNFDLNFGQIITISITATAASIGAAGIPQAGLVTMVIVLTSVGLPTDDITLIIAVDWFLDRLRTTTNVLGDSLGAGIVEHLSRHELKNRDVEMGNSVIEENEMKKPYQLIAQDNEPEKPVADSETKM
The note with it: at concentrations below 1 mM; cited from earlier work.

Data set [1] addresses T2, glutamate transporters (GLAST and GLT1).
T2 construct: Bmax; other: rat brain membrane homogenates; other: 20 nM [3H]-4MG, 15 minutes at 4° C; KD; association t½
Put plainly: [3H]-4MG binding to rat brain membrane homogenates. The note with it: for displacement of 4MG binding: at or above 100 μM, FIG. 5; for IC50: read-out: IC50 for displacement of [3H]-4MG binding. As for the experimental part:
(§1) Rat brain tissue, either freshly dissected or stored frozed at −20° C. is homogenized in HEPES buffer containing Na^+(5 mM HEPES, 96 mM NaCl, 1.8 mM CaCl2, 1 mM MgCl2 (pH 7.5 at 25° C.)), and membranes are washed twice in the same buffer using standard methods for subcellular fractionation and the preparation of brain membranes. Brain tissue is weighed and homogenized in 15 ml of assay buffer using a Polytron tissue homogenizer (setting 4, 10-15 seconds). […] The homogenate is centrifuged again (as above) and the pellet re-suspended in 20 to 25 volumes of buffer. Membrane homogenates make up 20% of final assay volume. Binding assays are also performed in the above buffer.
(§2) The range of concentrations of the receptor compound (for example, 10 nM-1 mM) is varied dependent on whether all or only a trace of the receptor compound is labeled. Following incubation of the receptor compounds (bound to the transporters) in the presence or absence of test compounds, binding is terminated by rapid filtration through Whatman GF/B filter discs and washing 3 times with buffer using a Brandel cell harvester. Binding is determined by any technique suitable for the label used. For isotope labels, scintillation spectrometry is preferred.
(§3) Forebrain tissue from female Sprague Dawley rats was homogenised in HEPES buffer containing Na^+, and membranes were washed twice in the same buffer. Binding experiments were also performed in this buffer. […] Binding was determined by scintillation spectrometry. A full range of association, dissociation, saturation and inhibition studies was performed over varying incubation times (up to 60 min). Data were analyzed using computer-assisted curve fitting. Values are expressed as mean of at least triplicate determinations and multiple experiments.
(§4) A full range of association, dissociation, saturation and inhibition studies was performed over varying incubation times (up to 60 min). Data were analyzed using computer-assisted curve fitting. Values cited are expressed as mean of at least triplicate determinations and multiple experiments.

The subject of data set [2] is glutamate transporters (GLAST and GLT1). Put plainly: [3H]-4MG binding to rat brain membrane homogenates. The note with it: FIG. 5. As to the method: as §1, §2, §3, §4
The nature of data set [3]: Hydrolysis of prodrug to the acid form. The data set is classed as in vitro ADME. The note with it: prodrug ester cleavage. The source says: The ester, carbonate, and amine bond in any prodrug forms of compounds identified by the disclosed method can be readily cleaved in vivo. Therefore, prodrug compositions can be hydrolyzed to the corresponding acids form in plasma.

The mark [4] stands for this setting: 20 nM [3H]-4MG, 15 minutes at 4° C., FIG. 3, FIG. 4.

Take `CC(CC(=O)O)C(N)C(=O)O` (racemic) [3MG, (±)-threo-3-methylglutamate]: at GLAST, the “binding to GLAST” value is reported as “do not bind”. By Kd is commonly meant the concentration at which binding is half-saturated. Low readings indicate higher affinity, high ones lower affinity. In data set [1] (rat brain membrane homogenates, FIG. 1), `C[C@H](C[C@H](N)C(=O)O)C(=O)O` [4MG, (2S,4R)-4-methyl glutamic acid] displayed a Kd of 5.4 µM. With `Cc1onc(O)c1CC(N)C(=O)O` (stereo not drawn) [AMPA, α-amino-3-hydroxy-5-methyl-4-isoxazolepropionate], the “displacement of 4MG binding” value in data set [1] is “failed to significantly displace”. For `CC(C)(C)c1o[nH]c(=O)c1CC(N)C(=O)O` (stereo not shown) [ATPA], the “effect on 4MG and/or D-aspartate binding to GluTs” value in data set [2] is on record as “failed to affect”. Usually IC50 stands for the concentration that gives 50% inhibition. On to `N[C@H](C(=O)O)[C@H]1C[C@H]1C(=O)O` [CCG-III, (2S,3S,4R)-2-(carboxycyclopropyl)glycine], for which the half-maximal inhibitory concentration (IC50) in data set [1] (setting [4]) turned out to be 1.2 µM.

For `CC(C)[C@H]1CN[C@H](C(=O)O)[C@H]1CC(=O)O` [DHK, L-Dihydrokainate], the “binding to GLAST” value at GLAST is on record as “do not bind”. Consider `N[C@@H](Cn1cc(F)c(=O)[nH]c1=O)C(=O)O` [FW, fluorowillardiine], for which the “displacement of 4MG binding” value in data set [1] is “failed to significantly displace”.

Regarding `NCCCC(=O)O` [GABA, γ-aminobutyric acid], the “effect on 4MG and/or D-aspartate binding to GluTs” value in data set [2] is recorded as “failed to affect”. The same measure, in the same setting: the value for `NCC(=O)O` [GLY, glycine] was “failed to affect”; that for `N[C@@H](Cn1cc(I)c(=O)[nH]c1=O)C(=O)O` [IW, iodowillardine] was “failed to affect”.

Take `C=C(C)[C@H]1CN[C@H](C(=O)O)[C@H]1CC(=O)O` [KA, kainate]: at GLAST, the “binding to GLAST” value is recorded as “do not bind”. Consider `N[C@@H](CC(=O)O)C(=O)O` [L-aspartate], for which, in data set [1] (setting [4]), the half-inhibitory concentration (IC50) is 7.5 µM. Take `CN[C@H](CC(=O)O)C(=O)O` [NMDA, N-methyl-D-aspartate]: the “displacement of 4MG binding” value in data set [1] is “failed to significantly displace”. With `O=C(O)[C@H]1CN[C@H](C(=O)O)C1` [PDC, L-trans-pyrrolidine-2,4-dicarboxylate], in data set [1] (setting [4]), the IC50 was found to be 2.9 µM. `N[C@@H](COS(=O)(=O)O)C(=O)O` [SOS, L-serine-O-sulphate]: the IC50 in data set [1] worked out at 40 µM. With `COC(=O)[C@H](C)C[C@H](N)C(=O)OC` [compound 2, (2S,4R)-4-methyl glutamic acid dimethyl ester], in data set [3], the “hydrolysis to (2S,4R)-4-methyl glutamic acid (1)” value is “readily hydrolyzed”.
